# In publication PMC12040169 (PLOS Biology, 2025):
# Assay: in vitro
# Details: human, hela cells, % viability
row,Compound,"viability at 28.5 h, 10 µM [%]"
1,Cn1nccc1C(=O)NC(Cc1ccsc1)c1cccnc1 (centres unmarked) [CBK285394],98.6
2,O=C(CCc1ccno1)NC(Cc1ccsc1)c1cccnc1 (centres unmarked) [CBK285395],97.3
3,O=C(Cn1cccn1)NC(Cc1ccsc1)c1cccnc1 (centres unmarked) [CBK285396],97
4,O=C(c1nc2ccccc2s1)C1CCNCC1 [CBK285397],103
5,C=Cn1cc(CN2CCCC(O)(c3ccc(F)cc3)CC2)c(C)n1 (centres unmarked) [CBK285398],106
6,COc1ccc(CN[C@@H]2CCC[C@H]2Cc2cc(C)no2)cc1 [CBK285401],94.4
7,Cc1cc(C[C@@H]2COC[C@H]2NCc2ccc(Cl)cc2)on1 [CBK285402],93.3
8,Cc1cc(C2CCCCCN2C(=O)c2cc(C3CC3)on2)on1 (centres unmarked) [CBK285414],90.1
9,Fc1ccc([C@@H]2CN(Cc3ccccn3)C[C@H]2c2cc[nH]n2)cc1 [CBK285416],104
10,FC(F)c1cc([C@@H]2CN(CC3CCOC3)C[C@H]2c2ccccc2)n[nH]1 (some centres unmarked) [CBK285430],98.5
11,C[C@@H]1C[C@H](C(F)(F)F)n2nc(C3CCCN3C(=O)C3CC3)cc2N1 (some centres unmarked) [CBK285432],90.6
12,COC(=O)Cn1cc(CN2CC3CCCN3C[C@H]2C)c2ccccc21 (some centres unmarked) [CBK285436],92.2
13,Cc1cc(C2CCCCCN2C(=O)c2cccc(F)c2)on1 (centres unmarked) [CBK285448],96.8
14,CC(=O)N1CCC(c2nc(C3CCCC3)no2)C1 (centres unmarked) [CBK285452],104
15,Cc1cc(C[C@@H]2CCC[C@H]2NCc2c(C)nn(C(C)C)c2C)on1 [CBK285453],98.3
16,CCCC(=O)N1CCC(c2nc(C3CCCC3)no2)C1 (centres unmarked) [CBK285457],106
17,CCC(=O)N1CCC(c2nc(C3CCCC3)no2)C1 (centres unmarked) [CBK285458],95.3
18,CC(=O)Nc1ccc(CN[C@@H]2CCC[C@H]2Cc2cc(C)no2)cc1 [CBK285459],102
19,Cc1cc(C[C@@H]2COC[C@H]2NCc2ccc(C(F)(F)F)cc2)on1 [CBK285463],107
20,COCC(=O)N1c2ccccc2CC[C@@H]1C(=O)OC [CBK285472],103
21,COc1ccc(C2CCN(C(=O)C3CCCO3)CC2)cc1 (centres unmarked) [CBK285473],102

row,Compound,"viability at 28.5 h, 10 µM [%]"
1,COC(=O)[C@H]1CCc2ccccc2N1C(=O)C(C)C [CBK285474],100
2,CCN(CC)C(=O)CN1CCC(c2ccc(F)cc2)CC1 [CBK285475],108
3,COc1ccc(C2(C(=O)N3CCC(c4ccncc4)CC3)CC2)cc1 [CBK285476],111
4,CC(C)CC(=O)N1CCC(n2c(=O)oc3ccc(Cl)cc32)CC1 [CBK285477],105
5,COC(=O)[C@H]1CCc2ccccc2N1C(=O)C1CCC1 [CBK285478],100
6,O=C(N1CCC(c2ccncc2)CC1)C1(c2ccccc2)CC1 [CBK285480],102
7,COc1ccccc1CC(=O)N1CCN(Cc2ccco2)C[C@@H]1C [CBK285481],105
8,CC(C(=O)N1CCC(c2ccncc2)CC1)c1ccccc1 (centres unmarked) [CBK285484],99.1
9,COc1cccc(CN2CCN(C(=O)Cc3cccs3)[C@@H](C)C2)c1 [CBK285487],104
10,CCn1cc(C(=O)N2CCN(Cc3ccco3)C[C@@H]2C(C)C)c(C)n1 [CBK285488],110
11,C[C@@H]1CN(Cc2ccco2)CCN1C(=O)c1nccc2ccccc12 [CBK285489],99.8
12,CC(C)[C@H]1CN(Cc2ccco2)CCN1C(=O)c1cscn1 [CBK285490],99.6
13,O=C(C1CCCC1)N1C[C@@H]2CCCCN(Cc3cccnc3)[C@@H]2C1 [CBK285492],101
14,CC(=O)N1C[C@@H]2CCCCN(CCOc3ccccc3)[C@@H]2C1 [CBK285494],107
15,CC(=O)N1C[C@@H]2CCCCN(CCc3ccc(F)cc3)[C@@H]2C1 [CBK285495],112
16,O=C(c1ccccc1)N1C[C@@H]2CCCCN(CC3CC3)[C@@H]2C1 [CBK285498],102
17,O=C(C1CCCC1)N1CCCC1c1nnc(-c2ccsc2)o1 (centres unmarked) [CBK285506],102
18,O=C(Cc1ccsc1)N1C[C@@H]2CCCCN(CC3CC3)[C@@H]2C1 [CBK285507],104
19,COC(=O)CN1CCCC[C@H]2CN(C(=O)Cc3ccsc3)C[C@H]21 [CBK285509],111
20,COc1cccc(CN2CCCC[C@H]3CN(C(C)=O)C[C@H]32)c1 [CBK285510],107
21,O=C(c1ccccc1)N1C[C@@H]2CCCCN(Cc3cccnc3)[C@@H]2C1 [CBK285512],98.7

row,Compound,"viability at 28.5 h, 10 µM [%]"
1,CS(=O)(=O)N1C[C@@H]2CCCCN(Cc3cccc(F)c3F)[C@@H]2C1 [CBK285513],95.6
2,COc1ccccc1CC(=O)N1CCCC1c1nc2ccccc2[nH]1 (centres unmarked) [CBK285517],94.6
3,COC1CCCC(C(=O)N2CCC(c3onc4c3CCC4)CC2)C1 (centres unmarked) [CBK285519],103
4,CC(C)OC(=O)[C@@H]1CCN(C(=O)CCC2NC(=O)NC2=O)[C@@H]1c1ccc(F)cc1 (some centres unmarked) [CBK285520],103
5,CC(C)CN1CCC2(CC=CCN(Cc3ccc(F)cc3)C2=O)CC1 [CBK285521],116
6,COc1ccc([C@H]2CN(C(=O)c3ccccn3)[C@@H]3CCCN(C(C)=O)[C@H]23)cc1 [CBK285523],91.4
7,CC(C)N1CCC[C@@H]2CN(C(=O)c3cccc(C(F)(F)F)c3)C[C@@H]21 [CBK285525],96
8,CN1CC[C@H](c2ccccc2)[C@@H]2[C@H]1CCCCN2C(=O)c1ccc(=O)oc1 [CBK285527],93.2
9,O=C(CCC1CCCC1)N1C[C@@H]2CCCCN(CC3CC3)[C@@H]2C1 [CBK285531],94
10,Cc1cccc(Nc2ccc(C3CCCCN3Cc3ccc4nccnc4c3)cn2)n1 (centres unmarked) [CBK285536],76.2
11,COc1ccc(C(NC(=O)Cc2ccc(-n3nnnc3C)cc2)c2ccccc2)cc1 (centres unmarked) [CBK285537],92.8
12,CCC(C)NC(=O)C1(Cc2ccc(-c3cc(F)ccc3OC)cc2)CCOCC1 (centres unmarked) [CBK285539],102
13,COc1ccc(F)cc1-c1ccc(CC2(C(=O)NCc3cccs3)CCOCC2)cc1 [CBK285540],112
14,COc1ccc(F)cc1-c1cccc(CC2(C(=O)NC3CCCCC3)CCOCC2)c1 [CBK285541],92.8
15,COc1ccc([C@H]2CN(Cc3ccccc3)[C@@H]3CCN(C(=O)c4ccccc4F)C[C@H]23)cc1 [CBK285542],91.1
16,O=C(c1cccs1)N1C[C@H](c2ccc(F)cc2)[C@H]2CN(Cc3ccccc3)CC[C@H]21 [CBK285544],91.8
17,O=C(c1cccs1)N1C[C@H](c2ccc(F)cc2)[C@H]2CN(Cc3ccc(F)cc3)CC[C@H]21 [CBK285545],91.3
18,Cc1ccccc1CN1CC[C@@H]2[C@H](C1)[C@@H](c1ccc(F)cc1)CN2C(=O)c1cccs1 [CBK285546],86.8
19,CC(=O)NC(CC(=O)N1CCc2sccc2C1c1ccccc1)c1ccc(F)cc1 (centres unmarked) [CBK285548],112
20,COc1ccc([C@H]2CN(Cc3ccccc3)[C@@H]3CCN(C(=O)c4ccccc4)C[C@H]23)cc1 [CBK285550],86.6
